According to patent publication US20240216401A1, “COMBINATION THERAPY BY USING AKR1C3-ACTIVATED COMPOUND WITH IMMUNE CHECKPOINT INHIBITOR” (OBI Pharma, Inc., priority 2021, published 2024):
Values joined by “and” are separate entries in the source; they are usually repeats but may differ in a detail not shown here. Identical values can stand only once.

Experiments:
Type in all cases: in vivo, Mus musculus
[1] = system: HepG2 tumor; assay: Example 1: tumor volume, tumor weight and TGI in HepG2 tumor bearing humanized mice
Method: (§1) Each group contains five mice. The human hepatocellular carcinoma cell line HepG2 were subcutaneously inoculated to the advanced immune deficiency mice. Total of 30 mice were included in this study.
2.2. […] The subcutaneous injection volume was […].
(§2) 3.1. […] The injection was performed using insulin syringe with the dosage of 10 mg/kg (Dosage of injection was changed to 20 mg/kg from Day 15) and injection volume of 10 mL/kg. […] The reference item was administered for G1. The procedure followed the standards of sample administration.
(§3) 3.2. The test item anti-hPD-L1 antibody or reference items were intraperitoneally injected to the mice on Day 8 after the inoculation of tumor cells. The injection was performed using insulin syringe with the dosage of 10 mg/kg (Dosage of injection was changed to 20 mg/kg from Day 15) and injection volume of 10 mL/kg. The test item anti-hPD-L1 was continuously administered on Day 8, 11, 15, 18, 22, 25, 29 and 32 for G4 and G6. The reference item was administered for G1. The procedure followed the standards of sample administration.
(§4) 3.3. […] The injection was performed using insulin syringe with the dosage of 1 mg/kg and injection volume of 5 mL/kg. […] The reference item was administered for G1. The procedure followed the standards of sample administration.
The measurement was performed from the next day of the inoculation. The tumor volumes were measured and recorded twice a week (Mon., Thur.). Tumor volume was calculated by ellipsoid equation according to the records ((major axis×minor axis×minor axis)×(π/6)).
Tumor volumes were used to calculate tumor growth inhibition (TGI) rates according to the following formula: TGI (%)=[1−(Ti−T0)/(Ci−C0)]×100, where Ti and Ci indicate the mean tumor volume in the treatment groups and vehicle group at the end of the experiment (Day 35). Whereas, T0 and C0 indicate the mean tumor volumes in the treatment group and vehicle group at the beginning of the experiment (Day 1).
(§5) Mice were sacrificed by CO2 euthanasia at the end of the study duration, and the connective tissue around tumor was resected. The tumor samples were then removed and weighed. The half tissue was fixed in 10% formaldehyde and then embedded in paraffin; the other half was prepared for the isolation of tumor-infiltrating lymphocytes (TILs).

[2] = Example 1: body weight and mortality of HepG2 tumor bearing humanized mice; conditions: for Body Weight, Mean: OBI-3424 1 mg/kg IV, antibody 10 mg/kg IP (20 from Day 15)
Method: as §1, §2, §3, §4
The measurement was performed from the next day of the inoculation. The animal body weights were measured and recorded twice per week.

[3] = system: CD8^+ cytotoxic T cells (CTL) in tumor-infiltrating lymphocytes; assay: Example 1: flow cytometry, percentage of CTL cells in TILs
Method: as §5
(§6) The half of mouse tumors were dissected into smaller fragments using scalpels and then digested with a cocktail of collagenase, DNase I, and Hyaluronidase (Collagenase #C5138, DNase I #D5025, Hyaluronidase #H6254, SigmaAldrich) for at least 2 hours.
(§7) Cells were stained with the fluorescently conjugated surface antibodies and incubated for 30 minutes at 4° C., and then resuspended in staining buffer for flow cytometric analysis. Flow cytometry was done using a Navios EX Flow Cytometer (Beckman Coulter). Data were analyzed using the Kaluza Analysis Software (Beckman Coulter).

[4] = system: CD4^+ T helper cells in tumor-infiltrating lymphocytes; assay: Example 1: flow cytometry, percentage of TH cells in TILs; conditions: individual mice
Method: as §5, §6, §7

[5] = system: NK cells in tumor-infiltrating lymphocytes; assay: Example 1: flow cytometry, percentage of NK cells in TILs; conditions: individual mice
Method: as §5, §6, §7

[6] = system: PD-L1^+ cells in tumor-infiltrating lymphocytes; assay: Example 1: flow cytometry, percentage of PD-L1 cells in TILs; conditions: individual animal
Method: as §5, §6, §7

[7] = TILs, flow cytometer, individual mice
[8] = TILs, gate CD45^+CD8^+ cells, individual mice

## anti-hPD-L1: Anti-Human PD-L1 antibody, Avelumab
[1]; D 1, group mean, OBI-3424 1 mg/kg IV, antibody 10 mg/kg IP (20 from Day 15)
  Tumor volume, Mean: 409.71 mm^3
[1]; D 4, group mean, OBI-3424 1 mg/kg IV, antibody 10 mg/kg IP (20 from Day 15)
  Tumor volume, Mean: 316.07 mm^3
[1]; D 7, group mean, OBI-3424 1 mg/kg IV, antibody 10 mg/kg IP (20 from Day 15)
  Tumor volume, Mean: 304.50 mm^3
[1]; D 11, group mean, OBI-3424 1 mg/kg IV, antibody 10 mg/kg IP (20 from Day 15)
  Tumor volume, Mean: 342.83 mm^3
[1]; D 14, group mean, OBI-3424 1 mg/kg IV, antibody 10 mg/kg IP (20 from Day 15)
  Tumor volume, Mean: 371.47 mm^3
[1]; D 18, group mean, OBI-3424 1 mg/kg IV, antibody 10 mg/kg IP (20 from Day 15)
  Tumor volume, Mean: 491.18 mm^3
[1]; D 21, group mean, OBI-3424 1 mg/kg IV, antibody 10 mg/kg IP (20 from Day 15)
  Tumor volume, Mean: 675.33 mm^3
[1]; D 25, group mean, OBI-3424 1 mg/kg IV, antibody 10 mg/kg IP (20 from Day 15)
  Tumor volume, Mean: 812.95 mm^3
[1]; D 28, group mean, OBI-3424 1 mg/kg IV, antibody 10 mg/kg IP (20 from Day 15)
  Tumor volume, Mean: 866.97 mm^3
[1]; D 32, group mean, OBI-3424 1 mg/kg IV, antibody 10 mg/kg IP (20 from Day 15)
  Tumor volume, Mean: 1155.84 mm^3
[1]; D 35, group mean (mean±SEM), OBI-3424 1 mg/kg IV, antibody 10 mg/kg IP (20 from Day 15)
  Tumor volume, Mean: 1148.64±193.00 mm^3 and 1148.64 mm^3
[1]; D 35, group mean, OBI-3424 1 mg/kg IV, antibody 10 mg/kg IP (20 from Day 15)
  Tumor weight, Mean: *1010.73 mg
[1]; Day 35, vs vehicle (G1), Student's t-test
  mean tumor volume compared with vehicle (in words): No statistically significant difference
[1]; HepG2 humanized mouse model
  effect on tumor growth (conclusion in words): no effect on tumor growth
[1]; from mean tumor volumes Day 35 vs Day 1, relative to vehicle, OBI-3424 1 mg/kg IV, antibody 10 mg/kg IP (20 from Day 15)
  TGI: 35.60%
[2]; Day 0, group mean
  Body Weight, Mean: 22.87 g
[2]; Day 1, group mean
  Body Weight, Mean: 22.73 g
[2]; Day 4, group mean
  Body Weight, Mean: 23.32 g
[2]; Day 7, group mean
  Body Weight, Mean: 23.48 g
[2]; Day 11, group mean
  Body Weight, Mean: 24.17 g
[2]; Day 14, group mean
  Body Weight, Mean: 23.74 g
[2]; Day 18, group mean
  Body Weight, Mean: 23.56 g
[2]; Day 21, group mean
  Body Weight, Mean: 23.37 g
[2]; Day 25, group mean
  Body Weight, Mean: 23.70 g
[2]; Day 28, group mean
  Body Weight, Mean: 23.57 g
[2]; Day 32, group mean
  Body Weight, Mean: 22.55 g
[2]; Day 35, group mean
  Body Weight, Mean: 23.35 g
[2]; one mouse (MI052) of G4
  mortality: found dead on Day 34
[3]; Example 1, TILs at sacrifice, flow cytometry
  CD8^+ cytotoxic T cells (CTL) population in tumors compared with vehicle (in words): not observed
[3]; [7]
  CD25^+ CTL cells (CD45^+CD8^+ CD25^+) Total %: 0.27% and 0.30% and 0.21% and 0.63%
  CTL cells (CD45^+CD8^+) Total %: 14.00% and 18.51% and 11.85% and 16.01%
  PD-1^+ CTL cells (CD45^+CD8^+ PD-1^+) Total %: 17.16% and 16.84% and 12.16% and 16.68%
[3]; TILs, gate CD45^+ cells, individual mice
  CTL cells (CD45^+CD8^+) CD45^+ Gated %: 57.51% and 57.17% and 56.56% and 70.33%
[3]; [8]
  CD25^+ CTL cells (CD45^+CD8^+ CD25^+) CTL Gated %: 1.93% and 1.59% and 1.77% and 3.90%
  PD-1^+ CTL cells (CD45^+CD8^+ PD-1^+) CTL Gated %: 97.44% and 88.98% and 94.63% and 98.61%
[3]; TILs, individual mice
  CD25^+ CTL cells (CD45^+CD8^+ CD25^+) Cell count: 0.33 ×10^5 and 0.66 ×10^5 and 0.37 ×10^5 and 0.45 ×10^5
  CTL cells (CD45^+CD8^+) Cell count: 17.08 ×10^5 and 40.72 ×10^5 and 20.97 ×10^5 and 11.56 ×10^5
  PD-1^+ CTL cells (CD45^+CD8^+ PD-1^+) Cell count: 20.94 ×10^5 and 37.05 ×10^5 and 21.52 ×10^5 and 12.04 ×10^5
[4]; flow cytometer
  CD25^+ TH cells (CD45^+CD4^+ CD25^+) Total %: 1.19% and 1.34% and 1.01% and 1.14%
  PD-1^+ TH cells (CD45^+CD4^+ PD-1^+) Total %: 10.85% and 11.67% and 6.66% and 15.38%
  TH cells (CD45^+CD4^+) Total %: 9.82% and 12.42% and 6.81% and 15.92%
[4]; gate CD45^+ cells
  TH cells (CD45^+CD4^+) CD45^+ Gated %: 40.34% and 38.36% and 32.51% and 69.93%
[4]; gate CD45^+CD4^+ cells
  CD25^+ TH cells (CD45^+CD4^+CD25^+) TH Gated %: 12.12% and 10.75% and 14.76% and 7.16%
  PD-1^+ TH cells (CD45^+CD4^+ PD-1^+) TH Gated %: 99.40% (2×) and 99.02% and 99.19%
[4]
  CD25^+ TH cells (CD45^+CD4^+ CD25^+) Cell count: 1.45 ×10^5 and 2.95 ×10^5 and 1.79 ×10^5 and 0.82 ×10^5
  PD-1^+ TH cells (CD45^+CD4^+ PD-1^+) Cell count: 13.24 ×10^5 and 25.67 ×10^5 and 11.79 ×10^5 and 11.10 ×10^5
  TH cells (CD45^+CD4^+) Cell count: 11.98 ×10^5 and 27.32 ×10^5 and 12.05 ×10^5 and 11.49 ×10^5
[5]; flow cytometer
  CD16^+ NK cells (CD45^+CD56^+ CD16^+) Total %: 0.44% and 0.80% and 0.62% and 0.48%
  NK cells (CD45^+CD56^+) Total %: 1.67% and 2.61% and 1.42% and 1.80%
  PD-1^+ NK cells (CD45^+CD56^+PD-1^+) Total %: 2.28% (2×) and 2.10% and 1.78%
[5]; gate CD45^+ cells
  NK cells (CD45^+CD56^+) CD45^+ Gated %: 9.51% and 10.84% and 12.49% and 8.78%
[5]; gate CD45^+CD56^+ cells
  CD16^+ NK cells (CD45^+CD56^+ CD16^+) NK Gated %: 26.13% and 30.65% and 43.46% and 26.39%
  PD-1^+ NK cells (CD45^+CD56^+PD-1^+) NK Gated %: 99.56% and 97.23% and 88.77% and 91.52%
[5]
  CD16^+ NK cells (CD45^+CD56^+ CD16^+) Cell count: 0.54 ×10^5 and 1.76 ×10^5 and 1.10 ×10^5 and 0.35 ×10^5
  NK cells (CD45^+CD56^+) Cell count: 2.04 ×10^5 and 5.74 ×10^5 and 2.51 ×10^5 and 1.30 ×10^5
  PD-1^+ NK cells (CD45^+CD56^+PD-1^+) Cell count: 2.78 ×10^5 and 5.02 ×10^5 and 3.72 ×10^5 and 1.29 ×10^5
[6]
  CD45^+ cells Cell count (×10^6): 2.97 ×10^6 and 7.12 ×10^6 and 3.71 ×10^6 and 1.64 ×10^6
  CD45^+ cells Gated %: 34.93% and 47.08% and 31.41% and 28.59%
  CD45^+ cells Total %: 24.35% and 32.38% and 20.95% and 22.77%
  Total PD-L1^+ cells (PD-L1^+) Cell count (×10^5): 1.35 ×10^5 and 3.98 ×10^5 and 15.58 ×10^5 and 12.17 ×10^5
  Total PD-L1^+ cells (PD-L1^+), Total %: 1.11% and 1.81% and 8.80% and 16.86%
  Total PD-L1^+ cells (PD-L1^+), Total cells Gated %: 1.43% and 2.38% and 11.79% and 19.02%
  Total cells Cell count (×10^6): 9.42 ×10^6 and 16.72 ×10^6 and 13.21 ×10^6 and 6.40 ×10^6
  Total cells Gated %: 77.18% and 75.98% and 74.62% and 88.63%
  Total cells Total %: 77.18% and 75.98% and 74.62% and 88.63%
